We go through 45 compounds from patent US9533952B2, “N-prop-2-ynyl carboxamide derivatives and their use as TRPA1 antagonists” (Orion Corporation, priority 2012, dated 2017).

Structures are written as SMILES.

Chain of TRPA1 (O75762 whole entry): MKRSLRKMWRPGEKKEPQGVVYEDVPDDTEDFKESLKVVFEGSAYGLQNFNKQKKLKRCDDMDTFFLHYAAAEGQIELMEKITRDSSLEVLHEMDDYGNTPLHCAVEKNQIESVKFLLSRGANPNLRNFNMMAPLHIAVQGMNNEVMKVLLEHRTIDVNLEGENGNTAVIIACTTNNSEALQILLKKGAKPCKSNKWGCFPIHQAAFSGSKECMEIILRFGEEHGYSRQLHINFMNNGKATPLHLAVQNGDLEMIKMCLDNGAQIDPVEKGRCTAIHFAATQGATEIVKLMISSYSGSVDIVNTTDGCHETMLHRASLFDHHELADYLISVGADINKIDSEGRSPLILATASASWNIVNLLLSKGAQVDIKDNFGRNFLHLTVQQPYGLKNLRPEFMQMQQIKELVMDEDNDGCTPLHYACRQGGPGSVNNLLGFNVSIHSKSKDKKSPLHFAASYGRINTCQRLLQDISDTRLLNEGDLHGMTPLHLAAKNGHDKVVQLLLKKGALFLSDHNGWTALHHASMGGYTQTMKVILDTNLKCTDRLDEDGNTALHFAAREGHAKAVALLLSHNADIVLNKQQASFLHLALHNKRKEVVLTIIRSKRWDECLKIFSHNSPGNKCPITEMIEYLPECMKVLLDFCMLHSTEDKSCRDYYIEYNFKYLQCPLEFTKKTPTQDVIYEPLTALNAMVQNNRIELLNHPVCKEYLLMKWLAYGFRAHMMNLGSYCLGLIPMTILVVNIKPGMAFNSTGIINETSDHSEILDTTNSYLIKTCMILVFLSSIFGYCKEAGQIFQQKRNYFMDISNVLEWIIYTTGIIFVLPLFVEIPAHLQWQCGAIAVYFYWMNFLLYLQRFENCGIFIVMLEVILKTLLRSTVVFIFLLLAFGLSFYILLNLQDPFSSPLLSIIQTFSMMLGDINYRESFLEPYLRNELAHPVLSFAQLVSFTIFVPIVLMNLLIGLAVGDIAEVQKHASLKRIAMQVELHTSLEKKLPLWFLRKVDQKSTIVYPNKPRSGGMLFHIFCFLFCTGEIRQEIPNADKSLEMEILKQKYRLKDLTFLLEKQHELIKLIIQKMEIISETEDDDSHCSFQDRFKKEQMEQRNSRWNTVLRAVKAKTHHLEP

The experiment addresses TRPA1 (Homo sapiens, UniProt O75762). The experiment can be described thus: Determination of TRPA1 activity in vitro (TRPA1 antagonism in vitro). The class given is cell-based. As to conditions: procedure of Wei et al., Anesthesiology 111 (2009) 147-154.
For orientation: IC50 means the midpoint of a concentration-inhibition curve. High values mean weaker potency, low ones greater potency. For the compound `C#CC(C)(C)NC(=O)c1cc2c(cc1NCC(C)C)OCO2` [Example 7, 6-(Isobutylamino)-N-(2-methylbut-3-yn-2-yl)benzo[d][1,3]dioxole-5-carboxamide], the IC50 worked out at 2900 nM.
For `C#CC(C)(C)NC(=O)c1cccnc1NC1CCC(F)(F)CC1` [Example 123, 2-(4,4-Difluorocyclohexylamino)-N-(2-methylbut-3-yn-2-yl)nicotinamide], the IC50 worked out at 3800 nM. The IC50 values of the last two compounds are within 1.5-fold of each other.
Compound `C#CC(CC)(CC)NC(=O)c1cc(Cl)ccc1NCCOC` [Example 44, 5-Chloro-N-(3-ethylpent-1-yn-3yl)-2-(2-methoxyethylamino)-benzamide] gave an IC50 of 1300 nM.
Consider `C#CC(C)(CC)NC(=O)c1cccnc1Nc1cc(OC)ccc1Cl` (stereo not drawn) [Example 189, 2-(2-Chloro-5-methoxyphenylamino)-N-(3-methylpent-1-yn-3-yl)nicotinamide], for which the IC50 was 3000 nM. This IC50 lies about 2.3-fold higher than the previous one.
`C#CC(C)(C)NC(=O)c1cc(C(F)(F)F)cnc1NC(C)C` [Example 28, 2-(Isopropylamino)-N-(2-methylbut-3-yn-2-yl)-5-(trifluoromethyl)-nicotinamide] showed a half-inhibitory concentration (IC50) of 1200 nM.
Compound `C#CC(C)(CC)NC(=O)c1cc(F)cnc1Nc1cccc(F)c1` (stereo not drawn) [Example 176, 5-Fluoro-2-(3-fluorophenylamino)-N-(3-methylpent-1-yn-3-yl)nicotinamide] returned an IC50 of 300 nM.
As for `C#CC(C)(C)NC(=O)c1cc(Cl)ccc1NCC(F)(F)F` [Example 14, 5-Chloro-N-(2-methylbut-3-yn-2-yl)-2-(2,2,2-trifluoroethylamino)-benzamide], the figure is 1200 nM.
As for `C#CC(C)(C)NC(=O)c1cc(F)cnc1NCCC(C)C` [Example 52, 5-Fluoro-2-(isopentylamino)-N-(2-methylbut-3-yn-2-yl)nicotinamide], the figure is 1200 nM; as for `C#CC(C)(C)NC(=O)c1cc(F)c(F)cc1NC1CCC1` [Example 17, 2-(Cyclobutylamino)-4,5-difluoro-N-(2-methylbut-3-yn-2-yl)benzamide], 1200 nM.
As for `C#CC(C)(C)NC(=O)c1cc(SC)ccc1NCCC(F)(F)F` [Example 78, N-(2-Methylbut-3-yn-2-yl)-5-(methylthio)-2-(3,3,3-trifluoropropyl-amino)benzamide], the figure is 800 nM; as for `C#CC(C)(CC)NC(=O)c1cccnc1Nc1ccc(F)cc1F` (stereo not drawn) [Example 174, 2-(2,4-Difluorophenylamino)-N-(3-methylpent-1-yn-3-yl)nicotinamide], 400 nM; as for `C#CC(C)(C)NC(=O)c1ccc(C(F)(F)F)cc1NCCC(F)(F)F` [Example 72, N-(2-methylbut-3-yn-2-yl)-4-(trifluoromethyl)-2-(3,3,3-trifluoropropyl-amino)benzamide], 500 nM.
Compound `C#CC(C)(C)NC(=O)c1cccnc1NCc1cccc(F)c1` [Example 98, 2-(3-Fluorobenzylamino)-N-(2-methylbut-3-yn-2-yl)nicotinamide] came in with a half-maximal inhibitory concentration (IC50) of 5300 nM.
In the case of `C#CC(C)(CC)NC(=O)c1cccnc1NC1CCC(F)(F)CC1` (stereo not drawn) [Example 191, 2-(4,4-Difluorocyclohexylamino)-N-(3-methylpent-1-yn-3-yl)nicotinamide], the IC50 is 600 nM.
Next, `C#CC(C)(C)NC(=O)c1ccc(C(F)(F)F)nc1NC(C)C` [Example 106, 2-(Isopropylamino)-N-(2-methylbut-3-yn-2-yl)-6-(trifluoromethyl)-nicotinamide]: 1300 nM; `C#CC(C)(C)NC(=O)c1cc(C(F)(F)F)cnc1NCCC(F)F` [Example 58, 2-(3,3-Difluoropropylamino)-N-(2-methylbut-3-yn-2-yl)-5-(trifluoromethyl)nicotinamide]: 1100 nM.
Regarding `C#CC(C)(CC)NC(=O)c1cccnc1Nc1ccccc1F` (stereo not drawn) [Example 185, 2-(2-Fluorophenylamino)-N-(3-methylpent-1-yn-3-yl)nicotinamide], the IC50 is 500 nM.
With `C#CC(C)(C)NC(=O)c1cc(C(F)(F)F)ccc1NCC(F)(F)F` [Example 39, N-(2-Methylbut-3-yn-2-yl)-2-(2,2,2-trifluoroethylamino)-5-(trifluoromethyl) benzamide], 600 nM corresponded to half-maximal inhibition (IC50).
As for `C#CC(C)(C)NC(=O)c1cc(Cl)cnc1NCCOC(C)(C)C` [Example 147, 2-(2-tert-Butoxyethylamino)-5-chloro-N-(2-methylbut-3-yn-2-yl)nicotinamide], the figure is 5200 nM.
Compound `C#CC(C)(C)NC(=O)c1cccnc1Nc1cc(F)cc(F)c1` [Example 151, 2-(3,5-Difluorophenylamino)-N-(2-methylbut-3-yn-2-yl)nicotinamide] displayed an IC50 of 500 nM.
Compound `C#CC(C)(C)NC(=O)c1cccnc1Nc1ccc(F)c(C#N)c1` [Example 181, 2-(3-Cyano-4-fluorophenylamino)-N-(2-methylbut-3-yn-2-yl)nicotinamide] gave an IC50 of 2700 nM.
`C#CC(C)(C)NC(=O)c1cc(Cl)cnc1NCCC(F)F` [Example 60, 5-Chloro-2-(3,3-difluoropropylamino)-N-(2-methylbut-3-yn-2-yl)nicotinamide] gave an IC50 of 1800 nM. This IC50 lies about 1.5-fold lower than the previous one.
As for `C#CC(C)(C)NC(=O)c1cccnc1NC(C)(C)C(F)(F)F` [Example 125, N-(2-Methylbut-3-yn-2-yl)-2-(1,1,1-trifluoro-2-methylpropan-2-ylamino)nicotinamide], half-maximal inhibition (IC50) required 4600 nM.
As for `C#CC(C)(C)NC(=O)c1cc(Cl)ccc1NCCC` [Example 3, 5-Chloro-N-(2-methylbut-3-yn-2-ylbut-3)-2-(propylamino)benzamide], the figure is 1100 nM.
With `C#CC(C)(C)NC(=O)c1ccc(C(F)(F)F)nc1NCC` [Example 107, 2-(Ethylamino)-N-(2-methylbut-3-yn-2-yl)-6-(trifluoromethyl)-nicotinamide], half-maximal inhibition (IC50) required 3700 nM.
In turn, `C#CC(C)(C)NC(=O)c1cc(Cl)cnc1NCC(F)F` [Example 32, 5-Chloro-2-(2,2-difluoroethylamino)-N-(2-methylbut-3-yn-2-yl)nicotinamide] showed an IC50 of 3800 nM.
Take `C#CC(C)(C)NC(=O)c1ccc(C(F)(F)F)nc1NCC(C)C` [Example 105]: the IC50 is 700 nM.
As for `C#CC(C)(C)NC(=O)c1cc(F)cnc1Nc1cccc(F)c1` [Example 175, 5-Fluoro-2-(3-fluorophenylamino)-N-(2-methylbut-3-yn-2-yl)nicotinamide], the figure is 900 nM.
As for `C#CC(C)(C)NC(=O)c1cc(C#N)ccc1NC1CCC1` [Example 36, 5-Cyano-2-(cyclobutylamino)-N-(2-methylbut-3-yn-2-yl)benzamide], the figure is 4200 nM; as for `C#CC(C)(C)NC(=O)c1cc(Cl)cnc1Nc1cccnc1` [Example 138, 5-Chloro-N-(2-methylbut-3-yn-2-yl)-2-(pyridin-3-ylamino)nicotinamide], 12000 nM; as for `C#CC(C)(C)NC(=O)c1cc(F)cnc1Nc1ccc(F)cc1` [Example 157, 5-Fluoro-2-(4-fluorophenylamino)-N-(2-methylbut-3-yn-2-yl)nicotinamide], 700 nM.
For `C#CC(C)(C)NC(=O)c1cc(C(F)(F)F)cnc1NC1CC(F)(F)C1` [Example 141, 2-(3,3-Difluorocyclobutylamino)-N-(2-methylbut-3-yn-2-yl)-5-(trifluoromethyl)nicotinamide], it took 300 nM to reach half-maximal inhibition (IC50).
Next, `C#CC(C)(C)NC(=O)c1ccccc1NCC(C)(C)C` [Example 81, N-(2-Methylbut-3-yn-2-yl)-2-(neopentylamino)benzamide]: 1300 nM.
As for `C#CC(C)(C)NC(=O)c1cc(F)cnc1NCCCOc1ccc(F)cc1` [Example 144, 5-Fluoro-2-(3-(4-fluorophenoxy)propylamino)-N-(2-methylbut-3-yn-2-yl)nicotinamide], the figure is 2600 nM; as for `C#CC(C)(C)NC(=O)c1cc(OC)ccc1NCCC(F)(F)F` [Example 76, 5-Methoxy-N-(2-methylbut-3-yn-2-yl)-2-(3,3,3-trifluoropropyl-amino)benzamide], 4700 nM; as for `C#CC(C)(C)NC(=O)c1cccnc1Nc1ccc(F)cc1F` [Example 173, 2-(2,4-Difluorophenylamino)-N-(2-methylbut-3-yn-2-yl)nicotinamide], 1900 nM.
As for `C#CC(C)(CC)NC(=O)c1cc(Cl)cnc1NC1CC(F)(F)C1` (stereo not drawn) [Example 177, 5-Chloro-2-(3,3-difluorocyclobutylamino)-N-(3-methylpent-1-yn-3-yl)nicotinamide], half-maximal inhibition (IC50) required 300 nM.
As for `C#CC(C)(CC)NC(=O)c1cc(F)cnc1Nc1ccccc1` (stereo not drawn) [Example 172, 5-Fluoro-N-(3-methylpent-1-yn-3-yl)-2-(phenylamino)nicotinamide], the figure is 300 nM; as for `C#CC(C)(C)NC(=O)c1cc2c(cc1NCC(C)C)OCCO2` [Example 9, 7-(Isobutylamino)-N-(2-methylbut-3-yn-2-yl)-2,3-dihydrobenzo[b][1,4]dioxine-6-carboxamide], 11200 nM; as for `C#CC(C)(CC)NC(=O)c1cccnc1Nc1ccccc1` (stereo not drawn) [Example 190, N-(3-Methylpent-1-yn-3-yl)-2-(phenylamino)nicotinamide], 400 nM.
`C#CC(C)(C)NC(=O)c1cc(F)c(F)cc1NC(C)C` [Example 67, 4,5-Difluoro-2-(isopropylamino)-N-(2-methylbut-3-yn-2-yl)benzamide] gave an IC50 of 5500 nM.
Next, `C#CC(C)(C)NC(=O)c1cc(F)ccc1NCCOC(F)(F)F` [Example 53, 5-Fluoro-N-(2-methylbut-3-yn-2-yl)-2-(2-(trifluoromethoxy)-ethylamino)benzamide]: 1900 nM.
On to `C#CC(C)(C)NC(=O)c1cc(F)c(F)cc1NC1CC1` [Example 86, 2-(Cyclopropylamino)-4,5-difluoro-N-(2-methylbut-3-yn-2-yl) benzamide], for which the half-maximal inhibitory concentration (IC50) was 2200 nM.
Next, `C#CC(C)(C)NC(=O)c1cc(I)ccc1NCCOC` [Example 50, 5-Iodo-2-(2-methoxyethylamino)-N-(2-methylbut-3-yn-2-yl)benzamide]: 5800 nM.
For `C#CC(C)(C)NC(=O)c1cccnc1NCCCc1ccccc1` [Example 143, N-(2-Methylbut-3-yn-2-yl)-2-(3-phenylpropylamino)nicotinamide], the 50% inhibitory concentration (IC50) was 3800 nM.
